Test results reported in patent publication US9895353B2, “Use of L-tryptophan for the treatment of parasomnias” (Zzeemag Inc., priority 2013, dated 2018).

Assays:
subjects with parasomnia = assay: Retrospective study of subjects with parasomnia (follow-up questionnaire and phone interview); format: in vivo, human
Experimental: A retrospective study was performed to evaluate the effects of L-tryoptophan on subjects with parasomnia and to look for sleep architectural differences in children before and after treatment.
Confidential charts were selected of boys and girls between the ages of 3 and 18 years with a clinical diagnosis of Parasomnias, and including behaviours of sleep walking, sleep talking, nightmares or night-terrors.
The 165 subjects that were included in the retrospective study of confidential charts were prescribed treatment with L-Tryptophan or Clonazepam, or no treatment. The exclusion criteria were children under the age 3 years or over the age 18 years and those undergoing treatment for Parasomnia at the time of the sleep study.
The diagnosis of parasomnia was made by a sleep physician and based on the clinical history together with confirmation from the polysomnographic sleep study findings.
An overnight polysomnographic sleep study and questionnaire data were collected during this study for each subject. Each of the subjects at the sleep clinic responded to a battery of questionnaires consisting of: Pediatric Daytime Sleepiness Scale (PDSS), THAT alertness scale, SNAP assessment for ADHD symptoms, Centre for Epidemiologic Studies in depression scale modified for children (CES-DC), and SCARED anxiety scale.
A follow-up questionnaire was formulated to assess for their symptoms following treatment with Tryptophan to compare values before and after treatment. A follow-up phone interview was conducted to assess the frequency of Parasomnias during and after treatment. The follow-up questionnaire included: daytime sleepiness, level of attention and concentration, ability to wake up in the morning, number of hours of sleep at night and incidence of temper tantrums.
Ninety nine (60%) of the 165 children were prescribed L-tryptophan to manage their parasomnia. The remaining were either prescribed Clonazepam (n=32) or were not prescribed anything. The latter reflected parental preference and/or clinical judgement.

[1] = test system: subjects presenting with parasomnia; assay: Case studies of subjects treated with L-tryptophan for parasomnia; format: in vivo, human
Experimental: A detailed analysis of a number of subjects presenting with parasomnia who were treated with L-tryptophan was performed. A selection of case reports of subjects treated with L-tryptophan are summarized below. Remarkably, L-tryptophan is useful for the treatment of subjects presenting with a variety of abnormal behavioral or physiological events occurring in association with sleep, specific sleep stages, or sleep-wake transition.

mild insomnia = settings: lower doses (<4 g), without altering sleep architecture; cited from earlier work
[2] = children treated with L-tryptophan
[3] = out of 69 patients who took L-Tryptophan
[4] = patients aged 3-18 years who took L-Tryptophan (n=69)
[5] = patients who took L-Tryptophan (n=69)
[6] = subjects administered L-tryptophan
[7] = Case A, current dose of 1.75 mg
[8] = Case B, 3 g one hour before bedtime

N[C@@H](Cc1c[nH]c2ccccc12)C(=O)O [L-tryptophan, (2S)-2-amino-3-(1H-indol-3-yl)propanoic acid]
frequency of parasomnic events (subjects with parasomnia; [2]): reduced
number of arousals in sleep (subjects with parasomnia; [2]): decreasing
side effects observed, number of patients (subjects with parasomnia; [3]): 7
side effects observed, percent of patients (subjects with parasomnia; [3]): 10%
improvement in parasomnia symptoms (B or R), number of patients (subjects with parasomnia; [4]): 55
improvement in parasomnia symptoms (B or R), percent of patients (subjects with parasomnia; [4]): 80%
no change in parasomnia symptoms (U), number of patients (subjects with parasomnia; [5]): 10
no change in parasomnia symptoms (U), percent of patients (subjects with parasomnia; [5]): 14%
worsening of parasomnia symptoms (W), number of patients (subjects with parasomnia; [5]): 4
worsening of parasomnia symptoms (W), percent of patients (subjects with parasomnia; [5]): 6%
alertness during the day (subjects with parasomnia; [6]): increased
attention during the day (subjects with parasomnia; [6]): better
number of temper tantrums (subjects with parasomnia; [6]): reduced
daytime fatigue [1, 7]: less problematic
nightly sleep talking [1, 7]: ceased
patient's sleep [1, 7]: improved
time to fall asleep after retiring to bed [1, 7]: 15 to 20 min
daytime somnolence or fatigue [1, 8]: no observation of daytime somnolence or fatigue
night terrors [1, 8]: no night terrors
nightly bedwetting / enuretic episodes [1, 8]: still continues to experience nightly enuretic episodes
tolerability ([1]; Case B, six capsules (3 g) one hour before bedtime): able to tolerate
daytime endurance ([1]; Case C, dosage of 2 mg): improved significantly
sleepwalking ([1]; Case C, dosage of 2 mg): No observed parasomnic behaviours of sleepwalking
subject's sleep ([1]; Case C, dosage of 2 mg): marked improvement
bruxism ([1]; Case D, 2 g daily): declined significantly
sleepwalking ([1]; Case D, 2 g daily): no episodes of sleep walking
frequency of bedwetting ([1]; Case E, 4.5 g daily): declined substantially
sleepwalking and sleep talking ([1]; Case E, 4.5 g daily): no longer walked or talked in their sleep
sleep overall ([1]; Case F, dose of 2.25 mg daily): improved noticeably
tolerability ([1]; Case F, dose of 2.25 mg daily): tolerated L-tryptophan well
decrease in sleep latency (mild insomnia): about half
